Experimental data taken from patent US7144880B2, “Compositions relating to novel compounds and targets thereof” (Regents of the University of Michigan, priority 2003, dated 2006).

How the values were obtained:
human OSCP = biological target: T1, human OSCP (Homo sapiens, UniProt P48047); experiment: Quenching of intrinsic OSCP fluorescence on titration (binding isotherm); conditions: human OSCP overexpressed in E. coli, fluorescence quenching
T1 construct: made in house; host or cells: E. coli
From the text: Oligomycin is a macrolide natural product that binds to the mitochondrial F1F0-ATPase, induces a state 3 to 4 transition, and as a result, generates ROS (e.g., O2^−). In preferred embodiments, the present invention binds the OSCP component of the mitochondrial F1F0-ATPase. In certain embodiments, screening assays of the present invention permit detection of binding partners of the OSCP. OSCP is an intrinsically fluorescent protein. In certain embodiments, titrating a solution of test compounds of the present invention into an E. Coli sample overexpressed with OSCP results in quenching of the intrinsic OSCP fluorescence. In other embodiments, fluorescent or radioactive test compounds can be used in direct binding assays. In other embodiments, competition binding experiments can be conducted. In this type of assay, test compounds are assessed for their ability to compete with Bz-423 for binding to the OSCP. In some embodiments, the compounds of the present invention cause a reduced increase in cellular ROS levels and reduced apoptosis in cells through regulation of the OSCP gene (e.g., altering expression of the OSCP gene). In further embodiments, the present invention functions by altering the molecular motions of the ATPase motor.
To determine if Bz-423 indeed binds to the OSCP and the affinity of the interaction, human OSCP was overexpressed in E. coli. […]

Ramos cells = experiment: Cytotoxicity in media containing 10% FBS; format: cell-based, human
From the text: Like most 1,4-benzodiazepines, Bz-423 binds strongly to bovine serum albumin (BSA), which reduces the effective concentration of drug free in solution. For example, in tissue culture media containing 10% (v/v) fetal bovine serum (FBS), ca. 99% of the drug is bound to BSA. […] Under these conditions, the dose response-curve is quite sharp such that there is a limited concentration range at which Bz-423 is only partly effective. Since some benzodiazepines are known to have anti-proliferative properties, the effect of Bz-423 at concentrations <ED50 were carefully analyzed and observed that in addition to inducing apoptosis, Bz-423 prevented cell growth after 3 d in culture. In these low serum conditions, the cytotoxic and anti-proliferative effects overlapped making it difficult to study each effect independently. […] While higher amounts of drug may also block proliferation, it caused apoptosis well before the effects on proliferation could be observed.

[1] = biological target: T2, bovine serum albumin (BSA) (Bos taurus, UniProt P02769); experiment: Binding to serum albumin in tissue culture media; format: in vitro ADME; conditions: tissue culture media containing 10% (v/v) FBS
T2 construct: from tissue; host or cells: fetal bovine serum (10% v/v) in tissue culture media
T2 sequence (P02769 25-607): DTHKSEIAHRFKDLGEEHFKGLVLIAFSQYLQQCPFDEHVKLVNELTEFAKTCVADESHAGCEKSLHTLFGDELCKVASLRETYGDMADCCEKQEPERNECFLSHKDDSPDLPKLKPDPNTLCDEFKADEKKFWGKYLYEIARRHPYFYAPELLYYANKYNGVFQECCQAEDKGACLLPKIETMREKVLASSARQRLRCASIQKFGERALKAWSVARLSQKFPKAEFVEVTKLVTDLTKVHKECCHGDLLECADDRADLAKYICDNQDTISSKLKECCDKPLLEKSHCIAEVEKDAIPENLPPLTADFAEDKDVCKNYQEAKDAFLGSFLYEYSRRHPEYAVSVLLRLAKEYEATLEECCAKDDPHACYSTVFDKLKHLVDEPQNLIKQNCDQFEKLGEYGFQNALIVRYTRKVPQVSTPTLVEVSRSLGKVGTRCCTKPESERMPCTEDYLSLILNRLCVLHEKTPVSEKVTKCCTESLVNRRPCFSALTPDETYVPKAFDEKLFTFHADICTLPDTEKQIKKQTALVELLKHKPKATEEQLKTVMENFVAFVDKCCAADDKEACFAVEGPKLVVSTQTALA
Protocol: Like most 1,4-benzodiazepines, Bz-423 binds strongly to bovine serum albumin (BSA), which reduces the effective concentration of drug free in solution. For example, in tissue culture media containing 10% (v/v) fetal bovine serum (FBS), ca. 99% of the drug is bound to BSA. Therefore, cell culture cytotoxicity assays are conducted in media with 2% FBS to reduce binding to BSA and increase the free [Bz-423]. Under these conditions, the dose response-curve is quite sharp such that there is a limited concentration range at which Bz-423 is only partly effective. Since some benzodiazepines are known to have anti-proliferative properties, the effect of Bz-423 at concentrations <ED50 were carefully analyzed and observed that in addition to inducing apoptosis, Bz-423 prevented cell growth after 3 d in culture. In these low serum conditions, the cytotoxic and anti-proliferative effects overlapped making it difficult to study each effect independently. […] While higher amounts of drug may also block proliferation, it caused apoptosis well before the effects on proliferation could be observed.

[2] = system: isolated rat liver mitochondria; experiment: ROS production in isolated mitochondria (DCFH oxidation to DCF); format: biochemical
Protocol: Male Long Evans rats are starved overnight and sacrificed by decapitation. Liver samples are homogenized in ice cold buffer A (250 mM sucrose, 10 mM Tris, 0.1 mM EGTA, pH 7.4), and nuclei and cellular debris are pelleted (10 min, 830 g, 4° C.). Mitochondria are collected by centrifugation (10 min, 15,000 g, 4° C.), and the supernatant is collected as the S15 fraction. The mitochondrial pellet is washed three times with buffer B (250 mM sucrose, 10 mM Tris, pH 7.4), and re-suspended in buffer B at 20–30 mg/mL. Mitochondria are diluted (0.5 mg/mL) in buffer C (200 mM sucrose, 10 mM Tris, pH 7.4, 1 mM KH2PO4, 10 μM EGTA, 2.5 μM rotenone, 5 mM succinate) containing 2′,7′-dichlorodihydrofluorescin diacetate (DCFH-DA, 1 μM). For state 3 measurements, ADP (2 mM) is included in the buffer, and prior to the addition of Bz-423, mitochondria are allowed to charge for 2 min. To induce state 4, oligomycin (10 μM) is added to buffer C. […] To detect effects on O2^− and delta ψm, mitochondria are incubated for 15 min at 37° C. in buffer C with vehicle, Bz-423, or CCCP containing DHE (5 μM) or DIOC6(3) (20 nM), and aliquots are removed for analysis by fluorescence microscopy.
O2^− production by Bz-423 may result from binding to a protein within mitochondria or a target in another compartment that signals mitochondria to generate ROS. To distinguish between these alternatives, isolated rat liver mitochondria were assayed for ROS production by monitoring the oxidation of 2′,7′-dichlorodihydrofluorescin diacetate to of 2′,7′-dichlorofluorescin in the presence and absence of Bz-423. In this assay, the rate of DCF production increased after a lag period during which endogenous reducing equivalents were consumed and the acetate moieties on the probe were hydrolyzed to yield 2′,7′-dichlorodihydrofluorescin, the redox-active species.

[3] = biological target: T3, mitochondrial F1F0-ATPase (Bos taurus, UniProt P13621); experiment: ATPase activity in sub-mitochondrial particles (SMPs); format: biochemical, bovine; conditions: bovine SMPs; read-out: ED50, inhibition of mitochondrial ATPase activity
T3 construct: from tissue
From the text: Oligomycin, a macrolide natural product that binds to the mitochondrial F1F0-ATPase, induces a state 3 to 4 transition and generates O2^− like Bz-423. Based on these similarities, it is possible that the F1F0-ATPase is also the molecular target for Bz-423. To test this hypothesis, the effect of Bz-423 on ATPase activity in sub-mitochondrial particles (SMPs) was examined.
>40 derivatives of Bz-423 were developed to determine the elements on this novel agent required for biological activity. […] The potency of these analogues in cell based assays correlated with the ED50 values in ATPase inhibition experiments using SMPs.

T1 sequence (P48047 24-213): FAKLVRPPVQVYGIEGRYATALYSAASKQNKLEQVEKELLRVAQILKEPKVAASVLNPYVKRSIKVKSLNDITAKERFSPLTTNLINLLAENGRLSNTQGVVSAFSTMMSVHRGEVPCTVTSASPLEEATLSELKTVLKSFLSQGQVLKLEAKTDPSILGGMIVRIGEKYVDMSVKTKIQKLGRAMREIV

## CN1C(=O)C(Cc2ccc3ccccc3c2)N=C(c2ccc(O)cc2)c2cc(Cl)ccc21 (stereo not shown) [Bz-423]
Human OSCP
  Kd: 200 ± 40 nM
Ramos cells; 10–15 μM
  Cytotoxicity: minimal cytotoxicity
Ramos cells; >20 μM
  Cytotoxicity: only apoptosis was observed
[1]
  Drug bound to BSA: ca. 99%
[2]; state 3 respiration, aerobic, after induction phase, slopes compared to control
  Increase in rate of ROS production versus control: nearly two-fold
[2]; state 4 respiration
  ROS production in state 4 mitochondria: does not stimulate ROS
[3]
  EC50: ~5000 nM
